Assay results reported in PubChem BioAssay AID2060610 (Molecular Pharmacology Branch, DTP, NCI, 2025).
Several values for one entry are separate records, joined by “and”; a condition that tells them apart may be missing. Identical values can stand only once.

System: 616215-338-R-J1-PDC complex spheroids, viability % test/control
Experiment: Anticancer human tumor 616215-338-R-J1-PDC patient-derived colon adenocarcinoma cell line growth inhibition [CLK]
Settings: for viability, T/C: stronger effect = lower value
Text: A high-throughput screen of multi-cell type tumor spheroids was designed to identify active combinations of […] and targeted small molecules. Complex spheroids include a stromal component modeled by human endothelial cells (HUVEC) and fibroblasts modeled by human mesenchymal stem cells (MSCs). The concentration ranges selected for each drug and investigational agent were based upon clinically achievable concentrations if the clinical Cmax of the agent was known.
Compounds. The drugs and investigational agents: cirtuvivint (SM08502; NSC835563), CC-671 (NSC850746), vemurafenib (NSC761431), tapotoclax (NSC804041), sotorasib (NSC818433), adagrasib (NSC831453), MRTX-1133 (NSC836407), BAY2416964 (NSC825713), copanlisib (NSC816437), inavolisib (NSC800729), abemaciclib (NSC768073), osimertinib (NSC779217), entinostat (NSC756642), eltanexor (KPT-8602, NSC794443), venetoclax (NSC766270), ceralasertib (NSC777638), bortezomib (NSC756655), olaparib (NSC753686), talazoparib (NSC767125), alisertib (NSC759677), peposertib (NSC802822), gemcitabine (NSC613327), 5-fluorouracil (NSC19893), SN-38 (NSC673596), oxaliplatin (NSC266046), paclitaxel (NSC125973), and doxorubicin (NSC123127), were obtained from the National Cancer Institute (NCI) Developmental Therapeutics Program Chemical Repository. The FDA-approved anticancer drug set is available from the Developmental Therapeutics Program at https://dtp.cancer.gov/organization/dscb/obtaining/available plates.htm. […] The stock solutions were prepared in dimethyl sulfoxide (DMSO, Sigma-Aldrich, St. Louis, MO, cat. D2650), except for the platinum complexes which were prepared in saline (Quality Biological, Gaithersburg, MD, cat. 114-055-101), at 800-fold the tested concentration and stored at -70 degrees C prior to their use. All drugs and investigational agents were tested over a range starting from a high concentration at or near the clinical Cmax and decreasing in half-log increments. If the clinical Cmax for an agent had not been determined, the highest concentration tested was 10 microM.
Cell Culture. All cells were maintained in an incubator at 37 degrees C and 5% CO2 with 95% humidity. The PDC lines were cultured according to standard operating procedures established by the NCI PDMR. Briefly, all PDCs were thawed and cultured in Matrigel-coated flasks prepared with a working solution of 1X Ham's F-12 nutrient mix, without supplementation (Invitrogen, Waltham, MA, cat. 11765054), 100 U/mL penicillin-streptomycin (Invitrogen, cat. 15140122), and 2.5% Matrigel (Corning Inc., Corning, NY, cat. 354248) for the first three passages. The 947758-054-R-J2-PDC line was cultured in 6B/Colon 1A media, which includes advanced DMEM/F-12 (Thermo Fisher Scientific, cat. 12634028), 10 mM HEPES (Thermo Fisher Scientific, cat. 15630080), 1X GlutaMAX supplement (Thermo Fisher Scientific, cat. 35050061), 0.1 mg/mL primocin (InvivoGen, cat. ant-pm-2), 10% defined fetal bovine serum, heat inactivated (HyClone Laboratories Inc., cat. SH30070.03HI), 1.25 mM N-Acetyl-L-cysteine (Sigma-Aldrich, cat. A9165), 10 mM nicotinamide (Sigma-Aldrich, cat. N0636), 1X B-27 supplement (Thermo Fisher Scientific, cat. 17504044), 1X N-2 supplement (Thermo Fisher Scientific, cat. 17502048), and 10 microM Y-27632 dihydrochloride (Tocris Bioscience, cat. 1254). The 876862-298-R-J1-PDC was cultured in 6E media, which includes all 6B/Colon 1A media components plus 50% L-WRN conditioned media (ATCC, cat. CRL-3276), 50 ng/mL recombinant human EGF recombinant protein (hEGF; Thermo Fisher Scientific, cat. PHG0311), 10 ng/mL recombinant human fibroblast growth factor 10 (hGFG-10; PeproTech, cat. 100-26), 1 ng/mL recombinant human fibroblast growth factor 2 (hFGF-2; PeproTech, cat. 100-18B), and 1 µM prostaglandin E2 (PGE2; Tocris, cat. 2296). The 227483-062-R1-J1-PDC line was cultured in Panc media, containing all 6E components except hFGF-2, with the addition of 500 nM SB-431542 (Selleckchem, cat. S1067) and 10 nM gastrin (Tocris, cat. 3006). […]

[1] = curve of first compound, second compound 0.0316 µM
[2] = curve of first compound, second compound 0.1 µM
[3] = curve of first compound, second compound 0.316 µM
[4] = curve of first compound, second compound 1 µM
[5] = curve of first compound, second compound 3.16 µM
[6] = curve of first compound, second compound 10 µM
[7] = second compound 0.0316 µM, first compound 0.0316 µM
[8] = second compound 0.0316 µM, first compound 0.1 µM
[9] = second compound 0.0316 µM, first compound 0.316 µM
[10] = second compound 0.0316 µM, first compound 1 µM
[11] = second compound 0.0316 µM, first compound 3.16 µM
[12] = second compound 0.0316 µM, first compound 10 µM
[13] = second compound 0.1 µM, first compound 0.0316 µM
[14] = second compound 0.1 µM, first compound 0.1 µM
[15] = second compound 0.1 µM, first compound 0.316 µM
[16] = second compound 0.1 µM, first compound 1 µM
[17] = second compound 0.1 µM, first compound 3.16 µM
[18] = second compound 0.1 µM, first compound 10 µM
[19] = second compound 0.316 µM, first compound 0.0316 µM
[20] = second compound 0.316 µM, first compound 0.1 µM
[21] = second compound 0.316 µM, first compound 0.316 µM
[22] = second compound 0.316 µM, first compound 1 µM
[23] = second compound 0.316 µM, first compound 3.16 µM
[24] = second compound 0.316 µM, first compound 10 µM
[25] = second compound 1 µM, first compound 0.0316 µM
[26] = second compound 1 µM, first compound 0.1 µM
[27] = second compound 1 µM, first compound 0.316 µM
[28] = second compound 1 µM, first compound 1 µM
[29] = second compound 1 µM, first compound 3.16 µM
[30] = second compound 1 µM, first compound 10 µM
[31] = second compound 3.16 µM, first compound 0.0316 µM
[32] = second compound 3.16 µM, first compound 0.1 µM
[33] = second compound 3.16 µM, first compound 0.316 µM
[34] = second compound 3.16 µM, first compound 1 µM
[35] = second compound 3.16 µM, first compound 3.16 µM
[36] = second compound 3.16 µM, first compound 10 µM
[37] = second compound 10 µM, first compound 0.0316 µM
[38] = second compound 10 µM, first compound 0.1 µM
[39] = second compound 10 µM, first compound 0.316 µM
[40] = second compound 10 µM, first compound 1 µM
[41] = second compound 10 µM, first compound 3.16 µM
[42] = second compound 10 µM, first compound 10 µM
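Note: spheroids exposed to agents for 7 days.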
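Throughout, for viability, T/C: 100% = DMSO vehicle wells.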

`O=C(c1cc(Cc2n[nH]c(=O)c3ccccc23)ccc1F)N1CCN(C(=O)C2CC2)CC1` + CNC(=O)c1ccc(Nc2nc(OC3CCCC3)c3c(-c4ccc5nc(C)oc5c4)c[nH]c3n2)c(OC)c1 was tested, and the IC50 [1] was greater than 10 µM, the IC50 [2] was greater than 10 µM and the IC50 [3] was less than 0.0316 µM. For the same compound, the IC50 [4] was less than 0.0316 µM, the IC50 [5] was less than 0.0316 µM and the IC50 [6] was less than 0.0316 µM. The viability, T/C [7] was 107%, the viability, T/C [8] was 98.9% and the viability, T/C [9] was 92.3%. The viability, T/C [10] was 99.7%, the viability, T/C [11] was 96.1% and the viability, T/C [12] was 110%. For the same compound, the viability, T/C [13] was 59%, the viability, T/C [14] was 63.5% and the viability, T/C [15] was 56%. The viability, T/C [16] was 57.2%, the viability, T/C [17] was 51.2% and the viability, T/C [18] was 63.9%. It also gave a viability, T/C [19] of 42.1%, a viability, T/C [20] of 61.1% and a viability, T/C [21] of 49.5%. For the same compound, the viability, T/C [22] was 45.2%, the viability, T/C [23] was 50% and the viability, T/C [24] was 56.6%. It also gave a viability, T/C [25] of 45.1%, a viability, T/C [26] of 51.3% and a viability, T/C [27] of 42.4%. It also gave a viability, T/C [28] of 49.3%, a viability, T/C [29] of 52.6% and a viability, T/C [30] of 49.8%. For the same compound, the viability, T/C [31] was 45.5%, the viability, T/C [32] was 38.5% and the viability, T/C [33] was 42.4%. It also gave a viability, T/C [34] of 42.2%, a viability, T/C [35] of 55.4% and a viability, T/C [36] of 41.6%. For the same compound, the viability, T/C [37] was 39.1%, the viability, T/C [38] was 41.8% and the viability, T/C [39] was 42.8%. It also gave a viability, T/C [40] of 47.8%, a viability, T/C [41] of 40.8% and a viability, T/C [42] of 39.8%.

Work on `CC(Nc1ccc2c(c1)OCCn1cc(N3C(=O)OCC3C(F)F)nc1-2)C(N)=O` (stereo not drawn) + CN1CCN(c2cc(C(=O)Nc3cc4cc(-c5cnn(C)c5)ccc4cn3)ccn2)CC1 yielded an IC50 [1] greater than 10 µM, an IC50 [2] of 1.98 µM and an IC50 [3] of less than 0.0316 µM. The IC50 [4] was less than 0.0316 µM, the IC50 [5] was less than 0.0316 µM and the IC50 [6] was less than 0.0316 µM. For the same compound, the viability, T/C [7] was 94.6%, the viability, T/C [8] was 108% and the viability, T/C [9] was 101%. It also gave a viability, T/C [10] of 92%, a viability, T/C [11] of 78.3% and a viability, T/C [12] of 52.4%. It also gave a viability, T/C [13] of 105%, a viability, T/C [14] of 97.9% and a viability, T/C [15] of 75%. For the same compound, the viability, T/C [16] was 59.2%, the viability, T/C [17] was 44.7% and the viability, T/C [18] was 38%. For the same compound, the viability, T/C [19] was 26.2%, the viability, T/C [20] was 22% and the viability, T/C [21] was 17.6%. The viability, T/C [22] was 13.8%, the viability, T/C [23] was 12.9% and the viability, T/C [24] was 10.4%. For the same compound, the viability, T/C [25] was 0.14%, the viability, T/C [26] was 0.18% and the viability, T/C [27] was 0.22%. For the same compound, the viability, T/C [28] was 0.1%, the viability, T/C [29] was 0.88% and the viability, T/C [30] was 0.09%. For the same compound, the viability, T/C [31] was 0.11%, the viability, T/C [32] was 0.15% and the viability, T/C [33] was 1.65%. For the same compound, the viability, T/C [34] was 1.21%, the viability, T/C [35] was 1.32% and the viability, T/C [36] was 1.75%. For the same compound, the viability, T/C [37] was 0.13%, the viability, T/C [38] was 0.18% and the viability, T/C [39] was 1.39%. The viability, T/C [40] was 0.23%, the viability, T/C [41] was 0.22% and the viability, T/C [42] was 0.23%.

In the case of `Cn1ncnc1[C@H]1c2n[nH]c(=O)c3cc(F)cc(c23)N[C@@H]1c1ccc(F)cc1`, the viability, T/C (compound 0.000316 µM) is reported as 92% and 98.4%, the viability, T/C (compound 0.001 µM) is reported as 105% and 97.6% and the viability, T/C (compound 0.00316 µM) is reported as 102% and 94.1%. The viability, T/C (compound 0.01 µM) was 95% and 95.3%, the viability, T/C (compound 0.0316 µM) was 116% and 114% and the viability, T/C (compound 0.1 µM) was 106% and 116%. It also gave an IC50 (curve of compound) greater than 0.1 µM.

Compound `C=C(F)C(=O)N1CCN(c2nc(OCC3CCCN3C)nc3c2CCN(c2cccc4cccc(Cl)c24)C3)CC1CC#N` (stereo not drawn) + CN1CCN(c2cc(C(=O)Nc3cc4cc(-c5cnn(C)c5)ccc4cn3)ccn2)CC1 has an IC50 [1] of 5.87 µM, an IC50 [2] of 6.07 µM and an IC50 [3] of less than 0.0316 µM. For the same compound, the IC50 [4] was less than 0.0316 µM, the IC50 [5] was less than 0.0316 µM and the IC50 [6] was less than 0.0316 µM. For the same compound, the viability, T/C [7] was 102%, the viability, T/C [8] was 109% and the viability, T/C [9] was 105%. For the same compound, the viability, T/C [10] was 106%, the viability, T/C [11] was 116% and the viability, T/C [12] was 0.26%. It also gave a viability, T/C [13] of 114%, a viability, T/C [14] of 120% and a viability, T/C [15] of 107%. For the same compound, the viability, T/C [16] was 116%, the viability, T/C [17] was 119% and the viability, T/C [18] was 0.19%. The viability, T/C [19] was 35.1%, the viability, T/C [20] was 45.4% and the viability, T/C [21] was 40.2%. It also gave a viability, T/C [22] of 38.8%, a viability, T/C [23] of 11.3% and a viability, T/C [24] of 0.12%. The viability, T/C [25] was 0.28%, the viability, T/C [26] was 0.24% and the viability, T/C [27] was 0.31%. The viability, T/C [28] was 0.16%, the viability, T/C [29] was 0.14% and the viability, T/C [30] was 0.11%. For the same compound, the viability, T/C [31] was 0.16%, the viability, T/C [32] was 0.16% and the viability, T/C [33] was 0.16%. It also gave a viability, T/C [34] of 0.18%, a viability, T/C [35] of 2.55% and a viability, T/C [36] of 3.36%. For the same compound, the viability, T/C [37] was 0.24%, the viability, T/C [38] was 0.21% and the viability, T/C [39] was 0.22%. It also gave a viability, T/C [40] of 0.25%, a viability, T/C [41] of 1.31% and a viability, T/C [42] of 0.21%.
